Laboratory results published in US20100190686A1, “NOVEL SECRETED PROTEINS OF ADIPOCYTES FOR DIAGNOSTIC PURPOSES” (The University of Georgia Research Foundation, priority 2007, published 2010).

Legend:
3T3-L1 adipocytes = test: O-GlcNAc levels by Western blot (RL-2 antibody) of whole-cell extracts, mouse immortalized adipocytes; type: cell-based; details: PUGNAc 100 μM vs low glucose (LG), FIG. 1
Protocol: 3T3s cell lines: 3T3-L1 and -F442A fibroblasts were maintained and differentiated on 10 cm plates essentially as previously described^11,25. Briefly, two days after the cells reached confluence, cells were induced to differentiate with high ([…], 3T3-L1) or low (3T3-F442A) glucose ([…]) DMEM containing 10% fetal bovine serum (3T3-L1) or 10% calf serum (3T3-F442A) via addition of 0.5 mM (115 μg/mL) 3-isobutyl-1-methyxanthine (MIX, Sigma), 1 μM (390 ng/mL) dexamethasone (Sigma), and 175 nM (1 μg/mL) recombinant insulin (human, Roche). After 48 hrs (day 2), the medium was replaced with high (3T3-L1) or low (3T3-F442A) glucose DMEM plus 10% FBS and supplemented with 1 μg/mL insulin for an additional 48 hrs. After 96 hrs (day 4), cells were maintained in appropriate medium depending on the condition being examined.
On the designated days (day 4 for 3T3-L1, day 5 for 3T3-F442A, and day 9 for rat primary adipocytes), adipocytes were induced with a combined treatment of low or high glucose containing 10% FBS, with or without insulin (100 nM) and PUGNAc (100 μM, TRC Inc.) according to the experimental conditions described in the results. After 24 hrs incubation, the medium was removed and the cells were washed five times with low or high glucose serum-free DMEM without antibiotics and vitamins and incubated with the last rinse for 15 min. […]

rat primary adipocytes [1] = test: O-GlcNAc levels by Western blot (RL-2 antibody) of whole-cell extracts, rat primary adipocytes; type: cell-based; details: PUGNAc 100 μM vs low glucose (LG), FIG. 1
Description: Rat Primary cell culture: inguinal and retroperitoneal fat pads were removed aseptically from male Sprague-Dawley rats (Harlan Industries, Indianapolis, Ind.) and primary preadipocytes were isolated as described in detail previously^26,27. After additional washing and centrifugation steps, the preadipocyte pellet was resuspended in plating medium (high glucose DMEM, antibiotics: PS, 10% FBS) and seeded at an average density of 1.35×10^4 cells/cm^2 for inguinal and 1.63×10^3 cells/cm^2 for retroperitoneal on 10 cm dishes for the differentiation. Primary cells were maintained in a humidified atmosphere containing 5% CO2 in air at 37° C. and cultured to confluence, changing the plating medium every 2 days. After 2 days of confluence, referred to as day 0, the medium was replaced with differentiation medium (high glucose DMEM containing antibiotics and 10% FBS, 0.25 mM MIX, 0.1 μM dexamethasone, and 17 nM insulin) and at day 2, an additional 17 nM of insulin was administered with the plating medium for an additional 48 hrs incubation. The cells were maintained in low glucose DMEM containing 10% FBS and treatments (see below) until harvest. […]

rat primary adipocytes [2] = test: Quantitative LC-MS/MS and 2D-LC-MS/MS analysis of the secreted proteome of primary rat adipocytes; type: cell-based
Description: Rat Primary cell culture: inguinal and retroperitoneal fat pads were removed aseptically from male Sprague-Dawley rats (Harlan Industries, Indianapolis, Ind.) and primary preadipocytes were isolated as described in detail previously^26,27. After additional washing and centrifugation steps, the preadipocyte pellet was resuspended in plating medium (high glucose DMEM, antibiotics: PS, 10% FBS) and seeded at an average density of 1.35×10^4 cells/cm^2 for inguinal and 1.63×10^3 cells/cm^2 for retroperitoneal on 10 cm dishes for the differentiation. Primary cells were maintained in a humidified atmosphere containing 5% CO2 in air at 37° C. and cultured to confluence, changing the plating medium every 2 days. After 2 days of confluence, referred to as day 0, the medium was replaced with differentiation medium (high glucose DMEM containing antibiotics and 10% FBS, 0.25 mM MIX, 0.1 μM dexamethasone, and 17 nM insulin) and at day 2, an additional 17 nM of insulin was administered with the plating medium for an additional 48 hrs incubation. The cells were maintained in low glucose DMEM containing 10% FBS and treatments (see below) until harvest.
On the designated days (day 4 for 3T3-L1, day 5 for 3T3-F442A, and day 9 for rat primary adipocytes), adipocytes were induced with a combined treatment of low or high glucose containing 10% FBS, with or without insulin (100 nM) and PUGNAc (100 μM, TRC Inc.) according to the experimental conditions described in the results. After 24 hrs incubation, the medium was removed and the cells were washed five times with low or high glucose serum-free DMEM without antibiotics and vitamins and incubated with the last rinse for 15 min. After the final wash was removed, serum-free media supplemented with insulin (1 nM) or PUGNAc (100 μM) was added and cells were incubated for 16 hrs.
After incubation, the conditioned media were harvested with extreme care and then centrifuged once at 1,800 rpm at 4° C. for 7 min. The supernatants were filtered using 1 μm syringe filters (PALL). The samples were then collected in centrifuge tubes and centrifuged again at 30,000×G at 4° C. for 30 min. The samples were then transferred to an equilibrated spin column (Centriprep YM-3, Amicon, Millipore) and buffer-exchanged at 2,800 G and 4° C. into 40 mM ammonium bicarbonate (NH4HCO3) plus 1 mM DTT and concentrated. The concentrated samples were denatured with 1 M urea, reduced with 10 mM DTT for 1 hr at 56° C., carboxyamidomethylated with 55 mM iodoacetamide in the dark for 45 min, and then digested with 5 μg trypsin (Promega) in 40 mM NH4HCO3 overnight at 37° C. After digestion, the peptides were acidified with 200 μl of 1% trifluoroacetic acid (TFA). Desalting was subsequently performed with C18 spin columns (Vydac Silica C18, The Nest Group, Inc.), and the resulting peptides were dried down in a Speed Vac and stored at −20° C. until analyzed. For the subset of samples to be analyzed for N-linked glycosylation, peptides were resuspended in 19 μl ^18O-water and 1 μl of N-glycanase (PNGaseF, Prozyme) and allowed to incubate for 18 hours at 37° C. Peptides were dried back down and resuspended in 50 μl of 40 mM NH4HCO3 with 1 μg of trypsin, to remove any possible C-terminal incorporation of ^18O from residual trypsin activity^28, for 4 hours and then dried down and stored at −20° C. until analyzed.
The peptides were resuspended with 78 μl of mobile phase A (0.1% formic acid, FA, in water) and 2 μl of mobile phase B (80% acetonitrile, ACN, and 0.1% formic acid in water) and filtered with 0.2 μm filters (Nanosep, PALL). The samples were loaded off-line onto a nanospray tapered capillary column/emitter (360×75×15 μm, PicoFrit, New Objective) self-packed with C18 reverse-phase (RP) resin (8.5 cm, Waters) in a Nitrogen pressure bomb for 10 min at 1,000 p.s.i. (˜5 ul load) and then separated via a 160-min linear gradient of increasing mobile phase B at a flow rate of ˜200 nl/min directly into the mass spectrometer. […]

adipocytes = details: elevation of O-GlcNAc levels with PUGNAc; previously shown (ref 11); cited from earlier work
[3] = type 2 diabetes, randomized controlled trial, cited from earlier work
[4] = PUGNAc treatment vs insulin responsive (LG) condition, same direction with HG+insulin, Table 5

Q: For CC(=O)N[C@H]1/C(=N/OC(=O)Nc2ccccc2)O[C@H](CO)[C@@H](O)[C@@H]1O [PUGNAc], which O-GlcNAc levels (3T3-L1 adipocytes) is on record?
A: elevate O-GlcNAc levels significantly

Q: What about the O-GlcNAc levels (rat primary adipocytes [1]) of the same compound?
A: elevate O-GlcNAc levels significantly

Q: And the “secretion of serine protease inhibitor 2C (reconstructed ion chromatogram of a peptide)” value (rat primary adipocytes [2]; LG+PUG vs LG (normalized to 1.00), two biological replicates, FIG. 4A)?
A: upregulation

Q: What about the “secretion of tetranectin (reconstructed ion chromatogram of a peptide)” value (rat primary adipocytes [2]; LG+PUG vs LG (normalized to 1.00), two biological replicates, FIG. 4B) of the same compound?
A: upregulation

Q: And the “secretion of cholesterol-binding protein NPC2” value (rat primary adipocytes [2]; PUGNAc treatment vs insulin responsive (LG) condition, both insulin resistance conditions)?
A: upregulated

Q: What about the “secretion of GP-39” value (rat primary adipocytes [2]; [4]) of the same compound?
A: upregulation

Q: What about the secretion of ceruloplasmin (rat primary adipocytes [2]; [4]) of the same compound?
A: upregulation

Q: What about the “secretion of fibulin-2” value (rat primary adipocytes [2]; [4]) of the same compound?
A: downregulated

Q: And the “secretion of lipoprotein lipase” value (rat primary adipocytes [2]; [4])?
A: upregulation

Q: What about the “secretion of protein-S” value (rat primary adipocytes [2]; [4]) of the same compound?
A: upregulation

Q: What about the “secretion of slit homolog 3” value (rat primary adipocytes [2]; [4]) of the same compound?
A: downregulated

Q: What about the secretion of spondin (rat primary adipocytes [2]; [4]) of the same compound?
A: upregulation

Q: And the “induction of insulin resistance” value (adipocytes)?
A: induces insulin resistance

Q: For CN(C)C(=N)N=C(N)N [metformin], which “cumulative incidence of monotherapy failure at 5 years” value ([3]; 5 years) is on record?
A: 21%

Q: For CN(CCOc1ccc(CC2SC(=O)NC2=O)cc1)c1ccccn1 (stereo not drawn) [rosiglitazone], which “weight gain and edema” value ([3]; compared with metformin and glyburide) is on record?
A: more weight gain and edema
